Measured values from ChEMBL document CHEMBL1201862, “PubChem BioAssay data set” (2004).
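Step 1: Grow cells in 96-well plates. Step 2: Expose to compound for 48 hours at 5 concentrations. Step 3: Interpolate endpoints linearly; if unreached, use highest concentration. GI50 = concentration required for 50% inhibition of growth.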 Calls of active or inactive are those of the source. Rule as the data show it: active = GI50 up to about 1.1 µM and inactive = higher.

Assays:
Experiment in all cases: DTP human tumour cell line panel, 48 h
[1] = system: A549
[2] = system: ACHN
[3] = system: CAKI-1
[4] = system: CCRF-CEM
[5] = system: COLO 205
[6] = system: DLD-1
[7] = system: DMS-114
[8] = system: DMS-273
[9] = system: EKVX
[10] = system: HCC 2998
[11] = system: HCT-116
[12] = system: HCT-15
[13] = system: HL-60
[14] = system: HOP-62
[15] = system: HT-29
[16] = system: IGROV-1
[17] = system: K562
[18] = system: KM-20L2
[19] = system: KM12
[20] = system: LOX IMVI
[21] = system: M14
[22] = system: MOLT-4
[23] = system: Malme-3M
[24] = system: NCI-H226
[25] = system: NCI-H23
[26] = system: NCI-H460
[27] = system: NCI-H522
[28] = system: OVCAR-3
[29] = system: OVCAR-4
[30] = system: OVCAR-5
[31] = system: OVCAR-8
[32] = system: RPMI-8226
[33] = system: RXF 393
[34] = system: SF-268
[35] = system: SF-539
[36] = system: SK-MEL-28
[37] = system: SK-MEL-2
[38] = system: SK-MEL-5
[39] = system: SK-OV-3
[40] = system: SN12C
[41] = system: SNB-19
[42] = system: SR
[43] = system: SW-620
[44] = system: TK-10
[45] = system: U-251
[46] = system: UACC-62
[47] = system: UO-31
[48] = system: XF498
[49] = system: 786-0
[50] = system: HOP-92
[51] = system: LXFL 529
[52] = system: M19-MEL
[53] = system: SF-295
[54] = system: SNB-75
[55] = system: SNB-78
[56] = system: UACC-257

## CCN(CC)C(=O)c1cc(OC(C)C)ccc1-c1c(C)cc(OC(C)C)c(OC)c1OC
[1]
  GI50: 48.6 µM (inactive)
[2]
  GI50: 57.8 µM (inactive)
[3]
  GI50: 84.5 µM (inactive)
[4]
  GI50: 34 µM (inactive)
[5]
  GI50: 63.7 µM (inactive)
[6]
  GI50: 40.3 µM (inactive)
[7]
  GI50: 36.5 µM (inactive)
[8]
  GI50: 41.6 µM (inactive)
[9]
  GI50: 60.7 µM (inactive)
[10]
  GI50: 46.3 µM (inactive)
[11]
  GI50: 38.2 µM (inactive)
[12]
  GI50: 46.9 µM
[13]
  GI50: 45.9 µM (inactive)
[14]
  GI50: > 100 µM (inactive)
[15]
  GI50: 38 µM (inactive)
[16]
  GI50: > 100 µM (inactive)
[17]
  GI50: 44.2 µM (inactive)
[18]
  GI50: 74 µM (inactive)
[19]
  GI50: 57.8 µM (inactive)
[20]
  GI50: 58.9 µM (inactive)
[21]
  GI50: 79.4 µM (inactive)
[22]
  GI50: 25.5 µM (inactive)
[23]
  GI50: 44 µM (inactive)
[24]
  GI50: 98.2 µM (inactive)
[25]
  GI50: 60 µM (inactive)
[26]
  GI50: 36.1 µM (inactive)
[27]
  GI50: 40 µM (inactive)
[28]
  GI50: 71 µM (inactive)
[29]
  GI50: 47.5 µM (inactive)
[30]
  GI50: > 100 µM (inactive)
[31]
  GI50: 58.5 µM (inactive)
[32]
  GI50: 24.2 µM (inactive)
[33]
  GI50: 43 µM (inactive)
[34]
  GI50: > 100 µM (inactive)
[35]
  GI50: 92 µM (inactive)
[36]
  GI50: > 100 µM (inactive)
[37]
  GI50: 46.7 µM (inactive)
[38]
  GI50: 35.6 µM (inactive)
[39]
  GI50: > 100 µM (inactive)
[40]
  GI50: 61.4 µM (inactive)
[41]
  GI50: 79.1 µM (inactive)
[42]
  GI50: 33.6 µM (inactive)
[43]
  GI50: 98.4 µM (inactive)
[44]
  GI50: > 100 µM (inactive)
[45]
  GI50: 63 µM (inactive)
[46]
  GI50: 51.8 µM (inactive)
[47]
  GI50: 86.3 µM (inactive)
[48]
  GI50: 25.8 µM (inactive)

## O=C(NC12CC3CC(CC(C3)C1)C2)C(=O)c1c[nH]c2ccc(Cl)cc12
[49]
  GI50: 6.24 µM (inactive)
[1]
  GI50: > 100 µM (inactive)
[2]
  GI50: 33.3 µM (inactive)
[4]
  GI50: 46.3 µM (inactive)
[5]
  GI50: 81.8 µM (inactive)
[7]
  GI50: 66.8 µM (inactive)
[8]
  GI50: 16.8 µM (inactive)
[9]
  GI50: > 100 µM (inactive)
[10]
  GI50: 32.9 µM (inactive)
[11]
  GI50: 30.1 µM (inactive)
[12]
  GI50: 21.2 µM
[13]
  GI50: 17.3 µM (inactive)
[14]
  GI50: 7.13 µM (inactive)
[50]
  GI50: 22.9 µM (inactive)
[15]
  GI50: 3.97 µM (inactive)
[16]
  GI50: 54.1 µM (inactive)
[17]
  GI50: 3.8 µM (inactive)
[18]
  GI50: 5.73 µM (inactive)
[19]
  GI50: 35.6 µM (inactive)
[20]
  GI50: 10.1 µM (inactive)
[51]
  GI50: 21.8 µM (inactive)
[21]
  GI50: 20 µM (inactive)
[52]
  GI50: 79.1 µM (inactive)
[22]
  GI50: 7.89 µM (inactive)
[23]
  GI50: 34.9 µM (inactive)
[24]
  GI50: 37.4 µM (inactive)
[25]
  GI50: > 100 µM (inactive)
[26]
  GI50: 22.2 µM (inactive)
[27]
  GI50: 85.5 µM (inactive)
[28]
  GI50: 13.8 µM (inactive)
[29]
  GI50: 21.2 µM (inactive)
[30]
  GI50: > 100 µM (inactive)
[32]
  GI50: 19.9 µM (inactive)
[34]
  GI50: 49 µM (inactive)
[53]
  GI50: 11.1 µM (inactive)
[35]
  GI50: 16.5 µM (inactive)
[36]
  GI50: 35.4 µM (inactive)
[37]
  GI50: 26.7 µM (inactive)
[38]
  GI50: 42.2 µM (inactive)
[39]
  GI50: 32.7 µM (inactive)
[40]
  GI50: 56.1 µM (inactive)
[41]
  GI50: 26.8 µM (inactive)
[54]
  GI50: 20.9 µM (inactive)
[55]
  GI50: 83.2 µM (inactive)
[42]
  GI50: 54.5 µM (inactive)
[45]
  GI50: 56.5 µM (inactive)
[56]
  GI50: 97.1 µM (inactive)
[46]
  GI50: 40.1 µM (inactive)
[47]
  GI50: 66.4 µM (inactive)
[48]
  GI50: 14.7 µM (inactive)
